Active and inactive are the calls of the source. The rule behind the calls is not given here.
Key:
[1] = molecular target: T1, Serine/threonine-protein kinase pim-1 (Homo sapiens, UniProt P11309); test: Inhibition of human Pim-1 using RSRHSSYPAGT as substrate assessed as residual activity at 10 uM measured for 30 mins in presence of [gamma-33P]-ATP relative to control
Target sequence in this assay (P11309 whole entry, looked up): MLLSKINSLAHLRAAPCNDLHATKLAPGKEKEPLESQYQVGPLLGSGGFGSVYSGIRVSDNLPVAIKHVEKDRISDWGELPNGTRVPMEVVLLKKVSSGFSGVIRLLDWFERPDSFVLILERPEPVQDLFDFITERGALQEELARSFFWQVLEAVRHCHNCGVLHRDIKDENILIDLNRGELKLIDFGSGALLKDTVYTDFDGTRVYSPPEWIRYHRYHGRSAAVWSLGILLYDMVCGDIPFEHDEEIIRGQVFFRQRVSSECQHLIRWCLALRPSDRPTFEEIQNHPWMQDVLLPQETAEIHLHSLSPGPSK

[2] = molecular target: T1, Serine/threonine-protein kinase pim-1; test: Inhibition of human Pim-1 using RSRHSSYPAGT as substrate assessed as residual activity at 1 uM measured for 30 mins in presence of [gamma-33P]-ATP relative to control
Target sequence in this assay (P11309 whole entry, looked up): as above

[3] = molecular target: T2, Serine/threonine-protein kinase pim-3 (Homo sapiens, UniProt Q86V86); test: Inhibition of human Pim-3 using RSRHSSYPAGT as substrate assessed as residual activity at 10 uM measured for 30 mins in presence of [gamma-33P]-ATP relative to control
[4] = molecular target: T2, Serine/threonine-protein kinase pim-3; test: Inhibition of human Pim-3 using RSRHSSYPAGT as substrate assessed as residual activity at 1 uM measured for 30 mins in presence of [gamma-33P]-ATP relative to control
[5] = molecular target: T2, Serine/threonine-protein kinase pim-3; test: Inhibition of human Pim-3 using RSRHSSYPAGT as substrate measured for 30 mins in presence of [gamma-33P]-ATP
[6] = molecular target: T1, Serine/threonine-protein kinase pim-1; test: Inhibition of human Pim-1 using RSRHSSYPAGT as substrate measured for 30 mins in presence of [gamma-33P]-ATP
Target sequence in this assay (P11309 whole entry): as the sequence (P11309 whole entry, looked up) above

[7] = test system: IPC81; test: Induction of apoptosis in rat IPC81 cells assessed as chromatin condensation and fragmentation at 10 to 100 uM after 48 to 72 hrs by Hoechst 33342 staining-based visual and UV microscopic analysis; format: functional, cell-based
[8] = test system: IPC81; test: Induction of apoptosis in rat IPC81 cells assessed as chromatin condensation and fragmentation at 100 uM after 72 hrs by Hoechst 33342 staining-based visual and UV microscopic analysis; format: functional, cell-based
[9] = test system: IPC81; test: Induction of apoptosis in rat IPC81 cells overexpressing Bcl-2 assessed as chromatin condensation and fragmentation at 10 to 100 uM after 48 hrs by Hoechst 33342 staining-based visual and UV microscopic analysis; format: functional, cell-based
[10] = test system: NRK; test: Induction of apoptosis in NRK cells assessed as chromatin condensation and fragmentation at 10 to 100 uM after 48 hrs by Hoechst 33342 staining-based UV-vis microscopic analysis; format: cell-based; conditions: rat
[11] = molecular target: T2, Serine/threonine-protein kinase pim-3; test: Inhibition of Pim-3 (unknown origin)
[12] = molecular target: T1, Serine/threonine-protein kinase pim-1; test: Inhibition of Pim-1 (unknown origin)
Target sequence in this assay (P11309 whole entry): as the sequence (P11309 whole entry, looked up) above

Activity [1] [%] | Activity [2] [%] | Activity [3] [%] | Activity [4] [%] | IC50 [5] [nM] | IC50 [6] [nM] | IC50 [11] [nM] | IC50 [12] [nM] | SMILES | Activity [7] | Activity [8] | Activity [9] | Activity [10]
34 | 57 | 35 | 65.8 | – | – | – | – | O=Cc1cn2c3c1ccc1c4ccccc4n(c13)CC(OCCN1CCOCC1)C2 (centres undefined) | – | – | – | –
24.1 | 58 | 18.3 | 54 | – | – | – | – | O=Cc1cn2c3c1ccc1c4ccccc4n(c13)CC(OCCCN1CCCC1)C2 (centres undefined) | – | – | – | –
6.6 | 24 | 8.1 | 25 | 600 | 1560 | – | – | CS(=O)(=O)OC1Cn2cc(C=O)c3ccc4c5ccccc5n(c4c32)C1 (centres undefined) | – | – | – | –
9 | 44 | 10.8 | 30 | 700 | 1100 | – | – | O=Cc1cn2c3c1ccc1c4ccccc4n(c13)CC(OCCO)C2 (centres undefined) | Active | Active | inactive | Toxic
1.9 | 9.5 | 5 | 10.3 | 190 | 390 | – | – | N#CCOC1Cn2cc(C=O)c3ccc4c5ccccc5n(c4c32)C1 (centres undefined) | inactive | – | inactive | Toxic
22.4 | 58.2 | 26 | 51 | – | – | – | – | CN1CCN(CCCOC2Cn3cc(C=O)c4ccc5c6ccccc6n(c5c43)C2)CC1 (centres undefined) | – | – | – | –
– | – | – | – | – | – | 26 | 9 | O=Cc1cn2c3c1ccc1c4ccccc4n(c13)CCCCC2 | – | – | – | –

The next lines start with the compound.

SMILES | Activity [1] [%] | Activity [2] [%] | Activity [3] [%] | Activity [4] [%] | IC50 [5] [nM] | IC50 [6] [nM] | IC50 [11] [nM] | IC50 [12] [nM] | Activity [7] | Activity [8] | Activity [9] | Activity [10]
O=Cc1cn2c3c1ccc1c4ccccc4n(c13)CC(OCCCO)C2 (centres undefined) | 21 | 54.9 | 16 | 49.6 | – | – | – | – | – | – | – | –
O=Cc1cn2c3c1ccc1c4ccccc4n(c13)CC(O)C2 (centres undefined) | 5 | 38 | 3.5 | 13.3 | 380 | 1400 | – | – | – | – | – | –
O=Cc1cn2c3c1ccc1c4ccccc4n(c13)CC(OCCCN1CCOCC1)C2 (centres undefined) | 28 | 75 | 24 | 70 | – | – | – | – | – | – | – | –
CN1CCN(CCOC2Cn3cc(C=O)c4ccc5c6ccccc6n(c5c43)C2)CC1 (centres undefined) | 35 | 94 | 28 | 60 | – | – | – | – | – | – | – | –
Cc1ccc(S(=O)(=O)NC2Cn3cc(C=O)c4ccc5c6ccccc6n(c5c43)C2)cc1 (centres undefined) | 32 | 52 | 34 | 55 | – | – | – | – | – | – | – | –
O=Cc1cn2c3c1ccc1c4ccccc4n(c13)CC(OCCN1CCCC1)C2 (centres undefined) | 17.8 | 84 | 16.4 | 48 | – | – | – | – | – | – | – | –
Cc1ccc(S(=O)(=O)OCCOC2Cn3cc(C=O)c4ccc5c6ccccc6n(c5c43)C2)cc1 (centres undefined) | 102 | 78 | 80 | 65 | – | – | – | – | – | – | – | –
O=Cc1cn2c3c1ccc1c4ccccc4n(c13)CC(OCCCN1CCCCC1)C2 (centres undefined) | 31 | 66 | 20 | 45 | – | – | – | – | Active | Active | Active | Non-toxic
O=Cc1cn2c3c1ccc1c4ccccc4n(c13)CC(OCCN1CCCCC1)C2 (centres undefined) | 30 | 82 | 22.2 | 54 | – | – | – | – | – | – | – | –
O=Cc1cn2c3c1ccc1c4ccccc4n(c13)CCC2 | – | – | – | – | – | – | 50 | 42 | – | – | – | –
CCN(CC)CCCOC1Cn2cc(C=O)c3ccc4c5ccccc5n(c4c32)C1 (centres undefined) | 29 | 71.6 | 24 | 60.8 | – | – | – | – | – | – | – | –
O=Cc1cn2c3c1ccc1c4ccccc4n(c13)CC(OCCCBr)C2 (centres undefined) | 19 | 54 | 11 | 40 | 340 | 740 | – | – | inactive | – | inactive | Non-toxic
Cc1ccc(S(=O)(=O)OCCCOC2Cn3cc(C=O)c4ccc5c6ccccc6n(c5c43)C2)cc1 (centres undefined) | 94 | 81 | 79 | 70.8 | – | – | – | – | – | – | – | –
CCN(CC)CCOC1Cn2cc(C=O)c3ccc4c5ccccc5n(c4c32)C1 (centres undefined) | 35 | 78 | 28 | 59 | – | – | – | – | – | – | – | –

Source: ChEMBL document CHEMBL3627645, “Synthesis and activities of new indolopyrrolobenzodiazepine derivatives toward acute myeloid leukemia cells” (Bioorg Med Chem, 2015)
